Results: patent US8134015B2, “Compound inhibiting in vivo phosphorous transport and medicine containing the same” (Kyowa Hakko Kirin Co., Ltd., priority 2003, dated 2012)

Key:
rat NaPi-2b = molecular target: T1, rat NaPi-2b (Rattus norvegicus, UniProt Q9JJ09); experiment: Sodium-dependent phosphate uptake of Xenopus oocytes which expressed NaPi-2b (32P); type: cell-based; settings: Xenopus oocytes expressing rat NaPi-2b, 32P radioactive phosphorus; read-out: IC50 (phosphate uptake inhibitory activity)
T1 construct: expressed in transfected cells; host or cells: Xenopus oocytes injected with cRNA
T1 sequence (Q9JJ09 1-695): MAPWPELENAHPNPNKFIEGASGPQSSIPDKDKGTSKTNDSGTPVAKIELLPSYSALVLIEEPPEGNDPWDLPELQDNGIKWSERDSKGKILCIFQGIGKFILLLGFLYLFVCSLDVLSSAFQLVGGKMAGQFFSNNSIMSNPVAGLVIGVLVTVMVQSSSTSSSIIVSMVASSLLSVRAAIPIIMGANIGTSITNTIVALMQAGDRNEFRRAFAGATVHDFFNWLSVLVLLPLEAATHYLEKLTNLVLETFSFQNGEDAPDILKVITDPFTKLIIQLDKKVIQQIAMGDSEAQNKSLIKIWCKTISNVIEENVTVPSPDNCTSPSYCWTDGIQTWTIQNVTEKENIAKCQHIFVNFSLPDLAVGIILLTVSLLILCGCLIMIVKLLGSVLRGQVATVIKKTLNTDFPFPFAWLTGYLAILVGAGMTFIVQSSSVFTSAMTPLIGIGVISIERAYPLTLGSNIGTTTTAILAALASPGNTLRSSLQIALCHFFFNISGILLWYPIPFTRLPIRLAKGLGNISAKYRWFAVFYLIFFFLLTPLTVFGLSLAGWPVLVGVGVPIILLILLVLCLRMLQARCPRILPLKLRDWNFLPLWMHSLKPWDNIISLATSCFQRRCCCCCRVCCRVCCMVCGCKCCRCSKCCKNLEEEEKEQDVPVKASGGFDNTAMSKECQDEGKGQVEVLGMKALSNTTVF
Procedure, shortened: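 Steps: rat NaPi-2b cDNA cloned from small intestine; cRNA made and injected into oocytes; 2-day expression; 32P phosphate uptake with compound; % inhibition at 300/100 μM taken from one curve.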

human NaPi-2a = molecular target: T2, human NaPi-2a (Homo sapiens, UniProt Q06495); experiment: Sodium-dependent phosphate uptake of Xenopus oocytes which expressed NaPi-2a (32P); type: cell-based; settings: phosphate uptake, Xenopus oocytes expressing human NaPi-2a; five concentration levels
T2 construct: expressed in transfected cells
T2 sequence (Q06495 1-639): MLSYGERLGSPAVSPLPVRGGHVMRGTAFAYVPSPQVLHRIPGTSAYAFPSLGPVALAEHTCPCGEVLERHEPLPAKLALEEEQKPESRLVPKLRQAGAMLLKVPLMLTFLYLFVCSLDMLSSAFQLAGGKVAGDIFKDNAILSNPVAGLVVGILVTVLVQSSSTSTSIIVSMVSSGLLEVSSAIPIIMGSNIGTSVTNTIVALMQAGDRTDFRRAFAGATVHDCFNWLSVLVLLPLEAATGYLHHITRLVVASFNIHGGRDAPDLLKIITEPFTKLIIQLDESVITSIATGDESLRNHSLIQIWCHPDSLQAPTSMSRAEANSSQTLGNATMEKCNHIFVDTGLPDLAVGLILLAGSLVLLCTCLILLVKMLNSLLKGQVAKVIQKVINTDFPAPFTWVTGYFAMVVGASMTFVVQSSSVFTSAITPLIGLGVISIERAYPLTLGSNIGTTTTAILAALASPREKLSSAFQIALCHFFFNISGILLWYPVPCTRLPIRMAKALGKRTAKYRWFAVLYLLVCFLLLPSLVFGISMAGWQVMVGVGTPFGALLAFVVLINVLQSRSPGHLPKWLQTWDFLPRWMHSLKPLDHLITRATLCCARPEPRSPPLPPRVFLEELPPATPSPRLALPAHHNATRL
Description: Experiment of Sodium-Dependent Phosphate Uptake of Xenopus oocytes which Expressed NaPi-2a
In the test, a group with the addition of choline chloride (Choline Cl) was used as a negative control for nonspecific uptake, and PFA (phosphonoformic acid) was used as a positive control for phosphate transport inhibition.

| IC50 (rat NaPi-2b) | IC50 (human NaPi-2a) | SMILES |
| --- | --- | --- |
| 1.2 µM | 1.58 µM | CCN(CC)CCN(C)Cc1cccc(C(=O)Nc2ccc(OCCOC)cc2C(=O)N/N=C/c2ccc(Cl)c(C(F)(F)F)c2)c1 [Compound 1027, N-[2-(4-Chloro-3-trifluoromethyl-benzylidene-hydrazinocarbonyl)-4-(2-methoxy-ethoxy)-phenyl]-3-{[(2-diethylamino-ethyl)-methyl-amino]-methyl}-benzamide] |
| 0.5 µM | 3.61 µM | Cc1ccc(/C=N/NC(=O)c2cc(N3CCCCC3)ccc2NC(=O)c2cccc(CN3CCc4nc5ncccc5cc4C3)c2)cc1 [Compound 894, 3-(7,8-Dihydro-5H-1,6,9-triaza-anthracen-6-ylmethyl)-N-[2-(4-methyl-benzylidene-hydrazinocarbonyl)-4-piperidin-1-yl-phenyl]-benzamide] |
| 5.59 µM | 30 µM | COc1ccc(C(=O)Nc2ccc(N3CCCCC3)cc2C(=O)N/N=C/c2cccnc2)cc1OC [Compound 936, 3,4-Dimethoxy-N-[4-piperidin-1-yl-2-(pyridin-3-ylmethylene-hydrazinocarbonyl)-phenyl]-benzamide] |
| 0.17 µM | 9.68 µM | COc1ccc(C(=O)Nc2ccc(N3CCCCC3)cc2C(=O)N/N=C/c2ccc(C)c(C)c2)cc1OC [Compound 935, N-[2-(3,4-Dimethyl-benzylidene-hydrazinocarbonyl)-4-piperidin-1-yl-phenyl]-3,4-dimethoxy-benzamide] |
| < 3 µM | < 3 µM | Cc1ccc(/C=N/NC(=O)c2cc(F)ccc2NC(=O)c2cccc(CN(CC(C)O)CC(C)O)c2)cc1C (stereo not shown) [Compound 985, 3-{[Bis-(2-hydroxy-propyl)-amino]-methyl}-N-[2-(3,4-dimethyl-benzylidene-hydrazinocarbonyl)-4-fluoro-phenyl]-benzamide] |
| 0.3 µM | 2.3 µM | Cc1ccc(/C=N/NC(=O)c2cc(Cl)ccc2NC(=O)c2cccc(CSCC(O)CO)c2)cc1 (stereo not shown) [Compound 1008, N-[4-Chloro-2-(4-methyl-benzylidene-hydrazinocarbonyl)-phenyl]-3-(2,3-dihydroxy-propylsulfanylmethyl)-benzamide] |
| 1.75 µM | 3.13 µM | O=C(Nc1ccc(N2CCCCC2)cc1C(=O)N/N=C/c1ccc(Cl)c(C(F)(F)F)c1)c1cccc(CNCCN(CCO)CCO)c1 [Compound 914, 3-({2-[Bis-(2-hydroxy-ethyl)-amino]-ethylamino}-methyl)-N-[2-(4-chloro-3-trifluoromethyl-benzylidene-hydrazinocarbonyl)-4-piperidin-1-yl-phenyl]-benzamide] |

Further lines, the molecule ahead of its results:

| SMILES | IC50 (rat NaPi-2b) | IC50 (human NaPi-2a) |
| --- | --- | --- |
| CC(O)CN(Cc1cccc(C(=O)Nc2sc3c(c2C(=O)N/N=C/c2cccc(F)c2)CCCC3)c1)CC(C)O (stereo not shown) [Compound 630, 3-{[Bis-(2-hydroxy-propyl)-amino]-methyl}-N-[3-(3-fluoro-benzylidene-hydrazinocarbonyl)-4,5,6,7-tetrahydro-benzo[b]thiophen-2-yl]-benzamide] | < 1 µM | 3.5 µM |
| O=C(Nc1ccc(N2CCCCC2)cc1C(=O)N/N=C/c1cccc(F)c1)c1cccc(CSCCO)c1 [Compound 883, N-[2-(3-Fluoro-benzylidene-hydrazinocarbonyl)-4-piperidin-1-yl-phenyl]-3-(2-hydroxy-ethylsulfanylmethyl)-benzamide] | 0.04 µM | 1.98 µM |
| Cc1csc(NC(=O)c2cccc(CN(CC(C)O)CC(C)O)c2)c1C(=O)N/N=C/c1ccc(Cl)c(C(F)(F)F)c1 (stereo not shown) [Compound 591, 3-{[bis-(2-hydroxy-propyl)-amino]-methyl}-N-[3-(4-chloro-3-trifluoromethyl-benzylidene-hydrazinocarbonyl)-4-methyl-thiophen-2-yl]-benzamide] | 1.01 µM | 4.04 µM |
| CC(O)CN(Cc1cccc(C(=O)Nc2sc3c(c2C(=O)N/N=C/c2ccc(F)cc2)CCC3)c1)CC(C)O (stereo not shown) [Compound 807, 3-{[Bis-(2-hydroxy-propyl)-amino]-methyl}-N-[3-(4-fluoro-benzylidene-hydrazinocarbonyl)-5,6-dihydro-4H-cyclopenta[b]thiophen-2-yl]-benzamide] | < 1 µM | 9.07 µM |
| O=C(O)CCSCc1cccc(C(=O)Nc2ccc(N3CCCCC3)cc2C(=O)N/N=C/c2ccc(Cl)c(C(F)(F)F)c2)c1 [Compound 889, 3-{3-[2-(4-Chloro-3-trifluoromethyl-benzylidene-hydrazinocarbonyl)-4-piperidin-1-yl-phenylcarbamoyl]-benzylsulfanyl}-propionic acid] | 0.33 µM | 1.41 µM |
| CCN(CC)CCNCc1cccc(C(=O)Nc2sc3c(c2C(=O)N/N=C/c2ccc(F)cc2)CCC3)c1 [Compound 813, 3-[(2-Diethylamino-ethylamino)-methyl]-N-[3-(4-fluoro-benzylidene-hydrazinocarbonyl)-5,6-dihydro-4H-cyclopenta[b]thiophen-2-yl]-benzamide] | 6.25 µM | 35.6 µM |
| O=C(Nc1sc2c(c1C(=O)N/N=C/c1cccc(F)c1)CCCC2)c1cccc(CN2CCC(CO)CC2)c1 [Compound 642, N-[3-(3-Fluoro-benzylidene-hydrazinocarbonyl)-4,5,6,7-tetrahydro-benzo[b]thiophen-2-yl]-3-(4-hydroxymethyl-piperidin-1-ylmethyl)-benzamide] | 2.14 µM | 13.3 µM |
| CCN(CC)CCSCc1cccc(C(=O)Nc2ccc(N3CCCCC3)cc2C(=O)N/N=C/c2ccc(Cl)c(C(F)(F)F)c2)c1 [Compound 878, N-[2-(4-Chloro-3-trifluoromethyl-benzylidene-hydrazinocarbonyl)-4-piperidin-1-yl-phenyl]-3-(2-diethylamino-ethylsulfanylmethyl)-benzamide] | < 0.3 µM | 7.22 µM |
| Cc1csc(NC(=O)c2cccc(CN3CCC4(CC3)OCCO4)c2)c1C(=O)N/N=C/c1cccc(F)c1 [Compound 835, 3-(1,4-Dioxa-8-aza-spiro[4,5]dec-8-ylmethyl]-N-[3-(3-fluoro-benzylidene-hydrazinocarbonyl)-4-methyl-thiophen-2-yl]-benzamide] | 6.46 µM | 11 µM |
| Cc1ccc(/C=N/NC(=O)c2cc(N3CCCCC3)ccc2NC(=O)c2cccc(CSCCO)c2)cc1C [Compound 880, N-[2-(3,4-Dimethyl-benzylidene-hydrazinocarbonyl)-4-piperidin-1-yl-phenyl]-3-(2-hydroxy-ethylsulfanylmethyl)-benzamide] | 0.08 µM | 1.3 µM |
| Cc1ccc(/C=N/NC(=O)c2c(C)csc2NC(=O)c2cccc(CN3CCN(c4ncccn4)CC3)c2)cc1 [Compound 827, N-[4-Methyl-3-(4-methyl-benzylidene-hydrazinocarbonyl)-thiophen-2-yl]-3-(4-pyrimidin-2-yl-piperazin-1-ylmethyl)-benzamide] | 3.5 µM | 24.4 µM |
| O=C(Nc1sc2c(c1C(=O)N/N=C/c1cccc(F)c1)CCCC2)c1cccc(CN2CCC(O)CC2)c1 [Compound 636, N-[3-(3-Fluoro-benzylidene-hydrazinocarbonyl)-4,5,6,7-tetrahydro-benzo[b]thiophen-2-yl]-3-(4-hydroxy-piperidin-1-ylmethyl)-benzamide] | 3.89 µM | 5.3 µM |
| Cc1ccc(/C=N/NC(=O)c2c(NC(=O)c3cccc(CN4CCC(CO)CC4)c3)sc3c2CCCC3)cc1 [Compound 640, 3-(4-Hydroxymethyl-piperidin-1-ylmethyl)-N-[3-(4-methyl-benzylidene-hydrazinocarbonyl)-4,5,6,7-tetrahydro-benzo[b]thiophen-2-yl]-benzamide] | 1.61 µM | 15.6 µM |
